Experimental findings from ChEMBL document CHEMBL1201862, “PubChem BioAssay data set” (2004) are described below.

Among the test systems are A498; CCRF-CEM; COLO 205; HCT-15; HOP-92; Hs-578T; K562; LOX IMVI; MDA-MB-231; MDA-N; MOLT-4; NCI-H23; OVCAR-4; OVCAR-5; SF-539; SK-MEL-28; SR; U-251; UACC-62; HCC 2998.
Assay in all cases: NCI tumour cell line growth inhibition, 48 h

Molecules are shown by their SMILES.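 Where inhibition never reached the appropriate level, the endpoint shown equals the highest concentration tested. Otherwise, values were interpolated linearly from a five-concentration, 48-hour dose response in 96-well plates. GI50 = concentration required for 50% inhibition of growth.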 Active and inactive are the calls of the source. Cut-off read from the data, not from the text of the source: active = GI50 up to about 1.1 µM and inactive = higher.

In the case of `C[Si](C)(c1ccc(C(=O)O)cc1)c1ccc(C(=O)O)cc1`, the GI50 in the assay on A498 was > 100 µM (inactive); in the assay with CCRF-CEM it was > 100 µM (inactive); in the assay on COLO 205, > 100 µM (inactive); in the assay on HCT-15 it was more than 100 µM; with HOP-92, > 100 µM (inactive); in the assay with Hs-578T, > 100 µM (inactive). The GI50 with K562, in the assay with LOX IMVI, in the assay on MDA-MB-231, with MDA-N, in the assay on MOLT-4 and in the assay on NCI-H23 was > 100 µM (inactive) in each case. Also, the GI50 with OVCAR-4, in the assay on OVCAR-5, in the assay on SF-539, in the assay with SK-MEL-28, with SR and with U-251 was > 100 µM (inactive) each time. Further, the GI50 with UACC-62 is > 100 µM (inactive).

As for `Clc1cccc(Cl)c1C(Nc1nncs1)Nc1nncs1`, the GI50 was 49.2 µM (inactive) with A498; 35.4 µM (inactive) in the assay on COLO 205; 13 µM in the assay on HCT-15; > 100 µM (inactive) in the assay on HOP-92; 71.3 µM (inactive) with Hs-578T; 31.7 µM (inactive) in the assay with K562. In addition, the GI50 in the assay with LOX IMVI is 21.8 µM (inactive); with MDA-MB-231, > 100 µM (inactive); in the assay with MDA-N, 9.27 µM (inactive); in the assay on MOLT-4, 17.3 µM (inactive); in the assay with NCI-H23 it was 40.2 µM (inactive); with OVCAR-4, 59.4 µM (inactive). In addition, the GI50 in the assay with OVCAR-5 was 36.5 µM (inactive); in the assay on SF-539 it was 23.9 µM (inactive); in the assay on SK-MEL-28 it was 21.8 µM (inactive); with SR, 4.84 µM (inactive); in the assay with U-251 it was 41.1 µM (inactive); in the assay on UACC-62, 67 µM (inactive).

With `C=CC(Br)(CBr)CCC(Br)C(C)C` (stereo not drawn), the GI50 in the assay on A498 is 18.7 µM (inactive); in the assay with CCRF-CEM it was 0.822 µM (active); with COLO 205 it was 5.93 µM (inactive); in the assay on HCT-15, 4.66 µM; in the assay on HOP-92, 10.7 µM (inactive); in the assay with Hs-578T it was 2.64 µM (inactive). Further, the GI50 with K562 is 2.11 µM (inactive); in the assay on LOX IMVI, 1.53 µM (inactive); in the assay with MDA-MB-231, 4.27 µM (inactive); in the assay on MDA-N, 2.07 µM (inactive); with MOLT-4 it was 1.91 µM (inactive); in the assay on NCI-H23, 6.82 µM (inactive). In addition, the GI50 is 4.9 µM (inactive) in the assay on OVCAR-4; 15.6 µM (inactive) with OVCAR-5; 2.66 µM (inactive) in the assay on SF-539; 3.49 µM (inactive) in the assay on SK-MEL-28; 1.62 µM (inactive) in the assay with SR; 3.66 µM (inactive) in the assay with U-251. In addition, in the assay with UACC-62, the GI50 is 3.12 µM (inactive).

Regarding `CC(=O)Oc1ccc2c(c1)O/C(=C\c1ccc(N(C)C)cc1)C2=O`, the GI50 was 82.4 µM (inactive) with CCRF-CEM; > 100 µM (inactive) in the assay with COLO 205; > 100 µM (inactive) with HCC 2998; 67 µM in the assay on HCT-15; 21 µM (inactive) in the assay with Hs-578T; 27.9 µM (inactive) with K562. For the same molecule, the GI50 with MDA-MB-231 was 68.5 µM (inactive); in the assay with MDA-N it was 36.4 µM (inactive); with MOLT-4, 47.1 µM (inactive); in the assay on NCI-H23, > 100 µM (inactive); in the assay with OVCAR-4, 75.2 µM (inactive); with SF-539 it was 26.4 µM (inactive). Also, the GI50 in the assay with SK-MEL-28 is > 100 µM (inactive); in the assay on SR, 37.2 µM (inactive); with U-251 it was 37.7 µM (inactive); with UACC-62, > 100 µM (inactive).

`CC12c3c4ccc(C=O)c3Oc3ccc(C=O)c(c31)Oc1ccc(C=O)c(c12)O4`: the GI50 is > 25 µM (inactive) with A498; 17.5 µM (inactive) in the assay with CCRF-CEM; > 25 µM (inactive) in the assay on COLO 205; more than 25 µM in the assay on HCT-15; > 25 µM (inactive) in the assay with HOP-92; > 25 µM (inactive) in the assay with Hs-578T. The GI50 in the assay with K562, in the assay with LOX IMVI, in the assay on MDA-MB-231, with MDA-N, with MOLT-4 and in the assay on NCI-H23 was > 25 µM (inactive) throughout. The GI50 in the assay with OVCAR-4 is > 25 µM (inactive); with OVCAR-5, > 25 µM (inactive); in the assay on SF-539 it was > 25 µM (inactive); in the assay with SK-MEL-28 it was > 25 µM (inactive); in the assay on SR it was 7.11 µM (inactive); with U-251, > 25 µM (inactive). Further, the GI50 in the assay with UACC-62 is > 25 µM (inactive).

As to `CN1C2CCC1CC(CCOC(c1ccc(F)cc1)c1ccc(F)cc1)C2` (stereo not drawn), the GI50 is 17.8 µM (inactive) with A498; 18.4 µM (inactive) with CCRF-CEM; 11.7 µM (inactive) in the assay on COLO 205; 16.9 µM in the assay on HCT-15; 15.7 µM (inactive) with HOP-92; 17.8 µM (inactive) in the assay on Hs-578T. Further, the GI50 was 12.4 µM (inactive) with K562; 16.6 µM (inactive) in the assay on LOX IMVI; 16.2 µM (inactive) with MDA-MB-231; 14.5 µM (inactive) in the assay on MDA-N; 11.9 µM (inactive) in the assay on MOLT-4; 19.5 µM (inactive) in the assay on NCI-H23. The GI50 in the assay with OVCAR-4 was 17.4 µM (inactive); in the assay on OVCAR-5 it was 15.9 µM (inactive); in the assay with SF-539, 15.9 µM (inactive); with SK-MEL-28, 16 µM (inactive); in the assay on SR it was 14.8 µM (inactive); with U-251 it was 14.9 µM (inactive).

On to `CN(C)c1ccc(/C=C2\C[C@H]3[C@@H]4CCC5=CC(=O)CC[C@]5(C)[C@H]4CC[C@]3(C)C2=O)cc1`, for which the GI50 is 37.7 µM (inactive) with A498; 21.7 µM (inactive) in the assay with COLO 205; 34.4 µM in the assay with HCT-15; 22.4 µM (inactive) with HOP-92; 38.4 µM (inactive) with Hs-578T; 19 µM (inactive) in the assay on K562. Moreover, the GI50 in the assay on LOX IMVI is 20.8 µM (inactive); with MDA-MB-231, 38.9 µM (inactive); with MDA-N it was 19.5 µM (inactive); with MOLT-4, 14.8 µM (inactive); with NCI-H23, 52.7 µM (inactive); in the assay with OVCAR-4, 59.7 µM (inactive). Further, the GI50 with OVCAR-5 was > 100 µM (inactive); in the assay on SF-539 it was 28.7 µM (inactive); in the assay on SK-MEL-28 it was > 100 µM (inactive); with SR, 17.7 µM (inactive); with U-251, 20.2 µM (inactive); with UACC-62, 20 µM (inactive).

In the case of `COC1=C2C[C@](OC)(C#CC=CC#CC2O)CC1(C)C` (stereo partly drawn), the GI50 in the assay on CCRF-CEM was 34.4 µM (inactive); in the assay with COLO 205, > 100 µM (inactive); in the assay with HCC 2998, 37.3 µM (inactive); with HCT-15, more than 100 µM; with Hs-578T, > 100 µM (inactive); in the assay on K562, 54.8 µM (inactive). Moreover, the GI50 with LOX IMVI was > 100 µM (inactive); in the assay on MDA-MB-231 it was > 100 µM (inactive); in the assay on MDA-N, > 100 µM (inactive); in the assay with MOLT-4 it was 49 µM (inactive); in the assay on NCI-H23, > 100 µM (inactive); with OVCAR-5, > 100 µM (inactive). The GI50 with SF-539 was > 100 µM (inactive); in the assay with SK-MEL-28 it was > 100 µM (inactive); in the assay on SR it was 56.4 µM (inactive); in the assay with U-251 it was > 100 µM (inactive); in the assay on UACC-62, 34.6 µM (inactive).

In the case of `CCOC(=O)CC1C(O)C(=O)N(C)C1c1ccccc1` (stereo not drawn), the GI50 in the assay with CCRF-CEM is > 100 µM (inactive); in the assay with COLO 205 it was > 100 µM (inactive); with HCC 2998, > 100 µM (inactive); in the assay on HCT-15 it was more than 100 µM; in the assay on HOP-92 it was > 100 µM (inactive); in the assay on Hs-578T, > 100 µM (inactive). For the same molecule, the GI50 in the assay with K562, in the assay on LOX IMVI, in the assay with MDA-MB-231, with MDA-N, with MOLT-4 and in the assay with NCI-H23 was > 100 µM (inactive) in each case. The GI50 in the assay on OVCAR-4, in the assay with OVCAR-5, with SF-539, with SK-MEL-28, with SR and with U-251 was > 100 µM (inactive) each time. For the same molecule, in the assay with UACC-62, the GI50 was > 100 µM (inactive).

Turning to `c1ccc(CN2CCC(=NN3CCCCC3)CC2)cc1`, the GI50 with CCRF-CEM was 31.8 µM (inactive); in the assay with COLO 205 it was 28.1 µM (inactive); in the assay with HCC 2998 it was 51.1 µM (inactive); with HCT-15, more than 100 µM; in the assay on HOP-92, 16.2 µM (inactive); in the assay on Hs-578T it was 35 µM (inactive). Further, the GI50 in the assay with K562 was 31.1 µM (inactive); with LOX IMVI it was 70.6 µM (inactive); with MDA-MB-231, 43.3 µM (inactive); with MDA-N, 83 µM (inactive); in the assay with MOLT-4 it was 39.4 µM (inactive); in the assay with NCI-H23 it was 78.2 µM (inactive). Moreover, the GI50 was > 100 µM (inactive) in the assay with OVCAR-4; > 100 µM (inactive) in the assay on OVCAR-5; > 100 µM (inactive) with SF-539; > 100 µM (inactive) in the assay with SK-MEL-28; 34.4 µM (inactive) in the assay on SR; 59.6 µM (inactive) in the assay on U-251. Moreover, the GI50 in the assay on UACC-62 is > 100 µM (inactive).

`C[C@@H]1C(=O)O[C@@H]2C[C@@]1(C)[C@@H]1C(=O)C3(O)OC14C2(C)OC(=O)[C@@]4(O)CCC1C3C(O)C=C2CC=CC(=O)[C@@]21C` (stereo partly drawn): the GI50 is 13.6 µM (inactive) in the assay with CCRF-CEM; 34 µM (inactive) in the assay with COLO 205; 39.1 µM (inactive) in the assay with HCC 2998; 34.4 µM in the assay on HCT-15; 20.9 µM (inactive) in the assay on Hs-578T; 23.9 µM (inactive) in the assay on K562. In addition, the GI50 in the assay on MDA-MB-231 is 28.8 µM (inactive); in the assay with MDA-N it was 28.9 µM (inactive); in the assay with MOLT-4, 20.7 µM (inactive); in the assay with OVCAR-4 it was 27.8 µM (inactive); in the assay on OVCAR-5, 25.5 µM (inactive); in the assay with SF-539, 25.3 µM (inactive). The GI50 with SK-MEL-28 was 22.2 µM (inactive); in the assay with SR it was 18.2 µM (inactive); in the assay with U-251, 30.8 µM (inactive); in the assay on UACC-62, 22 µM (inactive).
